Reference: US6376497B1, “Antifungal azole derivatives having a fluorinated vinyl group and process for preparing same” (Korea Research Institute of Chemical Technology, priority 1999, dated 2002)
Values after ≈ are worked out from the molar mass of the structure shown.

What was measured:
Assay in all cases: In vitro antifungal activity, microbroth dilution MIC
Type in all cases: cell-based
[1] = system: Aspergillus furnigatus B. 19119; conditions: 4 to 48 hours; for Minimal inhibitory concentration(MIC), A furnigatus B. 19119: RPMI-1640, 35° C., no growth observed
Summary of the method: (§1)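 Broth microdilution adapted from NCCLS M27, in RPMI-1640 with 0.165 M MOPS, pH 7.0. Yeast or mould inoculum at 2×10^3 CFU/ml was mixed 1:1 with DMSO-derived compound solutions (200 to 0.10 μg/ml before mixing) and incubated at 35 °C for 4 to 48 h. MIC was the concentration showing no growth.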

[2] = system: Cryptococcus neoformans IFM. 40092; conditions: 4 to 48 hours; for Minimal inhibitory concentration(MIC), Cry. neoformans IFM. 40092: RPMI-1640, 35° C., no growth observed
Summary of the method: as §1

[3] = system: Candida pseudotropicalis K. 11658; conditions: 4 to 48 hours; for Minimal inhibitory concentration(MIC), C. pseudotropicalis K. 11658: RPMI-1640, 35° C., no growth observed
Summary of the method: as §1

[4] = system: Torulopsis glabrata B. 16205; conditions: 4 to 48 hours; for Minimal inhibitory concentration(MIC), T. glabrata B. 16205: RPMI-1640, 35° C., no growth observed
Summary of the method: as §1

[5] = system: Candida tropicalis A. 13803; conditions: 4 to 48 hours; for Minimal inhibitory concentration(MIC), C. tropicalis A. 13803: RPMI-1640, 35° C., no growth observed
Summary of the method: as §1

[6] = system: Candida albicans IFO. 1385; conditions: 4 to 48 hours; for Minimal inhibitory concentration(MIC), C. albicans IFO. 1385: RPMI-1640, 35° C., no growth observed
Summary of the method: as §1

[7] = system: Trichophyton mentagrophytes B. 32663; conditions: 4 to 48 hours; for Minimal inhibitory concentration(MIC), T. mentagrophytes B. 32663: RPMI-1640, 35° C., no growth observed
Summary of the method: as §1

[8] = system: Candida parapsitosis A. 7330; conditions: 4 to 48 hours; for Minimal inhibitory concentration(MIC), C. parapsitosis A. 7330: RPMI-1640, 35° C., no growth observed
Summary of the method: as §1

[9] = system: Aspergillus niger A. 16404; conditions: 4 to 48 hours; for Minimal inhibitory concentration(MIC), A. niger A. 16404: RPMI-1640, 35° C., no growth observed
Summary of the method: as §1

[10] = system: Cryptococcus neoformans B. 42419; conditions: 4 to 48 hours; for Minimal inhibitory concentration(MIC), Cry. neoformans B. 42419: RPMI-1640, 35° C., no growth observed
Summary of the method: as §1

Candida albicans C1-2 = conditions: 4 to 48 hours; for Minimal inhibitory concentration(MIC), C. albicans C1-2: RPMI-1640, 35° C., no growth observed
Summary of the method: as §1

[11] = system: Trichophyton mentagrophytes A. 9129; conditions: 4 to 48 hours; for Minimal inhibitory concentration(MIC), T. mentagrophytes A. 9129: RPMI-1640, 35° C., no growth observed
Summary of the method: as §1

[12] = system: Candida albicans A. 10231; conditions: 4 to 48 hours; for Minimal inhibitory concentration(MIC), C. albicans A. 10231: RPMI-1640, 35° C., no growth observed
Summary of the method: as §1

Candida krusei K. 11655 = conditions: 4 to 48 hours; for Minimal inhibitory concentration(MIC), C. krusei K. 11655: RPMI-1640, 35° C., no growth observed
Summary of the method: as §1

[13] = system: Cryptococcus neoformans A. 34144; conditions: 4 to 48 hours; for Minimal inhibitory concentration(MIC), Cry. neoformans A. 34144: RPMI-1640, 35° C., no growth observed
Summary of the method: as §1

| Minimal inhibitory concentration(MIC), A furnigatus B. 19119 [1] [mg/L] | Minimal inhibitory concentration(MIC), Cry. neoformans IFM. 40092 [2] [mg/L] | Minimal inhibitory concentration(MIC), C. pseudotropicalis K. 11658 [3] [mg/L] | Minimal inhibitory concentration(MIC), T. glabrata B. 16205 [4] [mg/L] | Minimal inhibitory concentration(MIC), C. tropicalis A. 13803 [5] [mg/L] | Minimal inhibitory concentration(MIC), C. albicans IFO. 1385 [6] [mg/L] | Minimal inhibitory concentration(MIC), T. mentagrophytes B. 32663 [7] [mg/L] | Minimal inhibitory concentration(MIC), C. parapsitosis A. 7330 [8] [mg/L] | Minimal inhibitory concentration(MIC), A. niger A. 16404 [9] [mg/L] | Minimal inhibitory concentration(MIC), Cry. neoformans B. 42419 [10] [mg/L] | Minimal inhibitory concentration(MIC), C. albicans C1-2 (Candida albicans C1-2) [mg/L] | Minimal inhibitory concentration(MIC), T. mentagrophytes A. 9129 [11] [mg/L] | Minimal inhibitory concentration(MIC), C. albicans A. 10231 [12] [mg/L] | Minimal inhibitory concentration(MIC), C. krusei K. 11655 (Candida krusei K. 11655) [mg/L] | Minimal inhibitory concentration(MIC), Cry. neoformans A. 34144 [13] [mg/L] | SMILES | further results |
| --- | --- | --- | --- | --- | --- | --- | --- | --- | --- | --- | --- | --- | --- | --- | --- | --- |
| >100 | 0.20 | 1.56 | >100 | >100 | 1.56 | 1.56 | 3.13 | >100 | 0.78 | >100 | 6.25 | >100 | 1.56 | 0.39 | COc1ccc(C(=C(F)N2CCN(c3ccc(OCC4COC(Cn5ccnc5)(c5ccc(Cl)cc5Cl)O4)cc3)CC2)C(F)(F)F)cc1 (mixture of isomers) [Ex. 131] | – |
| >100 | 0.20 | 1.56 | >100 | >100 | 3.13 | 12.5 | 1.56 | >100 | 0.78 | >100 | 25.0 | >100 | 1.56 | 0.78 | FC(=C(c1ccc(C(F)(F)F)cc1)C(F)(F)F)N1CCN(c2ccc(OCC3COC(Cn4ccnc4)(c4ccc(Cl)cc4Cl)O3)cc2)CC1 (mixture of isomers) [Ex. 130] | – |
| – | – | – | – | – | – | – | – | – | – | – | – | – | – | – | Cc1cc(C)cc(C=C(F)OCC2COC(Cn3ccnc3)(c3ccc(Cl)cc3Cl)O2)c1 (stereo not drawn) [Ex. 6] | Minimal inhibitory concentration (MIC) ([1]; A furnigatus B. 19119, RPMI-1640, 35° C.): 6.25 mg/L (≈ 13.1 µM); Minimal inhibitory concentration (MIC) ([2]; Cry. neoformans IFM. 40092, RPMI-1640, 35° C.): 1.56 mg/L (≈ 3.27 µM); Minimal inhibitory concentration (MIC) ([3]; C. pseudotropicalis K. 11658, RPMI-1640, 35° C.): 12.5 mg/L (≈ 26.2 µM); Minimal inhibitory concentration (MIC) ([4]; T. glabrata B. 16205, RPMI-1640, 35° C.): 6.25 mg/L (≈ 13.1 µM); Minimal inhibitory concentration (MIC) ([5]; C. tropicalis A. 13803, RPMI-1640, 35° C.): 12.5 mg/L (≈ 26.2 µM); Minimal inhibitory concentration (MIC) ([6]; C. albicans IFO. 1385, RPMI-1640, 35° C.): 0.78 mg/L (≈ 1.63 µM); Minimal inhibitory concentration (MIC) ([7]; T. mentagrophytes B. 32663, RPMI-1640, 35° C.): 3.13 mg/L (≈ 6.56 µM); Minimal inhibitory concentration (MIC) ([8]; C. parapsitosis A. 7330, RPMI-1640, 35° C.): 12.5 mg/L (≈ 26.2 µM); Minimal inhibitory concentration (MIC) ([9]; A. niger A. 16404, RPMI-1640, 35° C.): 6.25 mg/L (≈ 13.1 µM); Minimal inhibitory concentration (MIC) ([10]; Cry. neoformans B. 42419, RPMI-1640, 35° C.): 3.13 mg/L (≈ 6.56 µM); Minimal inhibitory concentration (MIC) (Candida albicans C1-2; C. albicans C1-2, RPMI-1640, 35° C.): 12.5 mg/L (≈ 26.2 µM); Minimal inhibitory concentration (MIC) ([11]; T. mentagrophytes A. 9129, RPMI-1640, 35° C.): 3.13 mg/L (≈ 6.56 µM); Minimal inhibitory concentration (MIC) ([12]; C. albicans A. 10231, RPMI-1640, 35° C.): 6.25 mg/L (≈ 13.1 µM); Minimal inhibitory concentration (MIC) (Candida krusei K. 11655; C. krusei K. 11655, RPMI-1640, 35° C.): 12.5 mg/L (≈ 26.2 µM); Minimal inhibitory concentration (MIC) ([13]; Cry. neoformans A. 34144, RPMI-1640, 35° C.): 3.13 mg/L (≈ 6.56 µM) |
| >100 | 0.39 | 1.56 | >100 | >100 | 3.13 | 3.13 | 3.13 | >100 | 0.78 | >100 | 12.5 | >100 | 3.13 | 0.78 | Cc1ccc(C(=C(F)N2CCN(c3ccc(OCC4COC(Cn5ccnc5)(c5ccc(Cl)cc5Cl)O4)cc3)CC2)C(F)(F)F)cc1C (mixture of isomers) [Ex. 129] | – |
